What all share (assay type): functional, cell-based
In one experiment the test system is BXPC-3. In words: Cytotoxicity against human BXPC-3 cells assessed as inhibition of cell growth incubated for 24 hrs by MTT assay. The settings on record: BXPC-3, 24 h.
For the next experiment, the system named is A549. In words: Cytotoxicity against human A549 cells assessed as inhibition of cell growth incubated for 24 hrs by MTT assay. The settings on record: A549, 24 h.
Another experiment deals with PANC-1. In words: Cytotoxicity against human PANC-1 cells assessed as inhibition of cell growth incubated for 24 hrs by MTT assay. As to conditions: PANC-1, 24 h.
In another experiment the test system is Calu-3. In words: Cytotoxicity against human Calu-3 cells assessed as inhibition of cell growth incubated for 24 hrs by MTT assay. The settings on record: Calu-3, 24 h.

Some results are limits rather than exact numbers.

Take `CC[C@H](C)[C@@H]1NC(=O)[C@H](c2cc(O)c(C)c(O)c2)NC(=O)[C@H](NC(=O)[C@H](C)NC(=O)[C@H](NC(=O)CC(=O)[C@@H](C)C[C@@H](C)C[C@@H](C)[C@H](O)[C@@H](C)C(=O)[C@@H](C)O)[C@@H](C)O)[C@@H](C)NC(=O)CNC1=O`: the IC50 in the experiment with BXPC-3 amounted to 2.3 µM; with A549 it was 9.2 µM; in the experiment with PANC-1, 6.5 µM; in the experiment with Calu-3 it was 18.8 µM.

Regarding `CC[C@H](C)[C@@H]1NC(=O)[C@H](c2cc(O)c(C)c(O)c2)NC(=O)[C@H](NC(=O)[C@H](C)NC(=O)[C@H](NC(=O)CC(=O)[C@@H](C)C[C@@H](C)C[C@@H](C)[C@H](O)[C@@H](CO)[C@@H](O)CC)[C@@H](C)O)[C@@H](C)NC(=O)CNC1=O`, the IC50 with BXPC-3 stood at 8.2 µM; in the experiment on A549, 10.4 µM; with PANC-1, 6.6 µM; in the experiment with Calu-3 it was 15.3 µM.

`CC[C@H](O[C@@H]1O[C@H](CO)[C@@H](OC)[C@H](O)[C@H]1O)[C@H](C)[C@@H](O)[C@H](C)C[C@H](C)C[C@H](C)C(=O)CC(=O)N[C@@H](C(=O)N[C@@H](C)C(=O)N[C@H]1C(=O)N[C@@H](c2cc(O)c(C)c(O)c2)C(=O)N[C@@H]([C@@H](C)CC)C(=O)NCC(=O)N[C@@H]1C)[C@@H](C)O`: the IC50 in the experiment with BXPC-3 amounted to 3.9 µM; in the experiment with A549 it was 3.7 µM; in the experiment on PANC-1 it was 3.9 µM; in the experiment on Calu-3, 12.2 µM.

Turning to `CCC[C@H](C)[C@@H](O)[C@H](C)C[C@H](C)C[C@H](C)C(=O)CC(=O)N[C@@H](C(=O)N[C@@H](C)C(=O)N[C@H]1C(=O)N[C@@H](c2cc(O)c(C)c(O)c2)C(=O)N[C@@H]([C@@H](C)CC)C(=O)NCC(=O)N[C@@H]1C)[C@@H](C)O`, the half-inhibitory concentration (IC50) with BXPC-3, in the experiment on A549, with PANC-1 and in the experiment with Calu-3 was more than 100 µM each time.

For `CCC(=O)[C@H](C)[C@@H](O)[C@H](C)C[C@H](C)C[C@H](C)C(=O)CC(=O)N[C@@H](C(=O)N[C@@H](C)C(=O)N[C@H]1C(=O)N[C@@H](c2cc(O)c(C)c(O)c2)C(=O)N[C@@H]([C@@H](C)CC)C(=O)NCC(=O)N[C@@H]1C)[C@@H](C)O`, the IC50 worked out at 7.2 µM in the experiment on BXPC-3, 9.7 µM in the experiment on A549, 9.5 µM in the experiment with PANC-1 and 14.6 µM in the experiment on Calu-3.

On to `CC[C@H](C)[C@@H]1NC(=O)[C@H](c2cc(O)c(C)c(O)c2Cl)NC(=O)[C@H](NC(=O)[C@H](C)NC(=O)[C@H](NC(=O)CC(=O)[C@@H](C)C[C@@H](C)C[C@@H](C)[C@H](O)[C@@H](C)[C@@H](O[C@@H]2O[C@H](CO)[C@@H](OC)[C@H](O)[C@H]2O)[C@@H](C)O)[C@@H](C)O)[C@@H](C)NC(=O)CNC1=O`, for which the half-maximal inhibitory concentration (IC50) in the experiment with BXPC-3, in the experiment on A549, in the experiment on PANC-1 and in the experiment on Calu-3 was more than 100 µM each time.

As to `CC[C@H](C)[C@@H]1NC(=O)[C@H](c2cc(O)c(C)c(O)c2)NC(=O)[C@H](NC(=O)[C@H](C)NC(=O)[C@H](NC(=O)CC(=O)[C@@H](C)C[C@@H](C)C[C@@H](C)[C@H](O)[C@@H](C)[C@@H](O[C@@H]2O[C@H](CO)[C@@H](OC)[C@H](O)[C@H]2O)[C@@H](C)O)[C@@H](C)O)[C@@H](C)NC(=O)CNC1=O`, the half-maximal inhibitory concentration (IC50) in the experiment on BXPC-3, with A549, in the experiment with PANC-1 and with Calu-3 was more than 100 µM throughout.

With `CC[C@H](C)[C@@H]1NC(=O)[C@H](c2cc(O)c(C)c(O)c2)NC(=O)[C@H](NC(=O)[C@H](C)NC(=O)[C@H](NC(=O)CC(=O)[C@@H](C)C[C@@H](C)C[C@@H](C)[C@H](O)[C@@H](C)[C@@H](O)CC)[C@@H](C)O)[C@@H](C)NC(=O)CNC1=O`, the 50% inhibitory concentration (IC50) with BXPC-3 was 30.4 µM; in the experiment with A549 it was 58.8 µM; with PANC-1, 42.1 µM; in the experiment on Calu-3, more than 100 µM.

The values above are taken from ChEMBL document CHEMBL5226377, “Totopotensamide Congeners from a Halogenase-Inactivated Mutant” (J Nat Prod, 2023).
